Reference: PMC3575848 (Nucleic Acids Research, 2012)

Columns and labels:
Type in all cases: binding
HsaDRS2 [1] = molecular target: T1, HsaDRS2 (Homo sapiens, UniProt Q6PI48); experiment: isothermal titration calorimetry
T1 sequence (Q6PI48 41-645): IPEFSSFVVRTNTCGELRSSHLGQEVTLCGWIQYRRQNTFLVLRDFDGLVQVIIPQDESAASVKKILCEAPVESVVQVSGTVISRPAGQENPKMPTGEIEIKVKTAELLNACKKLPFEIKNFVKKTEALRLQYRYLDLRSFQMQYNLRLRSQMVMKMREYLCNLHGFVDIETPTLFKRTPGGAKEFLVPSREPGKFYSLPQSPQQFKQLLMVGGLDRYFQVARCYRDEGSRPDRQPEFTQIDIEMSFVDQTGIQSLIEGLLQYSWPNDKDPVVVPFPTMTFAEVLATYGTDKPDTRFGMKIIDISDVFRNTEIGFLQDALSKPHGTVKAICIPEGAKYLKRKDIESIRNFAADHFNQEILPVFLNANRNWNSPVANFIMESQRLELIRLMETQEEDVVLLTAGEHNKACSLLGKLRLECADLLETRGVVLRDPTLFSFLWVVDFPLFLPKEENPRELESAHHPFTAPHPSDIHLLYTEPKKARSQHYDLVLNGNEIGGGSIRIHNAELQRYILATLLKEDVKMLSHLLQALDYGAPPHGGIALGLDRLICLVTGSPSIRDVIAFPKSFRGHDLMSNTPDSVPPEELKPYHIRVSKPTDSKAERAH

EcoDRS [2] = molecular target: T2, EcoDRS (Escherichia coli, UniProt P21889); experiment: isothermal titration calorimetry
T2 sequence (P21889 whole entry): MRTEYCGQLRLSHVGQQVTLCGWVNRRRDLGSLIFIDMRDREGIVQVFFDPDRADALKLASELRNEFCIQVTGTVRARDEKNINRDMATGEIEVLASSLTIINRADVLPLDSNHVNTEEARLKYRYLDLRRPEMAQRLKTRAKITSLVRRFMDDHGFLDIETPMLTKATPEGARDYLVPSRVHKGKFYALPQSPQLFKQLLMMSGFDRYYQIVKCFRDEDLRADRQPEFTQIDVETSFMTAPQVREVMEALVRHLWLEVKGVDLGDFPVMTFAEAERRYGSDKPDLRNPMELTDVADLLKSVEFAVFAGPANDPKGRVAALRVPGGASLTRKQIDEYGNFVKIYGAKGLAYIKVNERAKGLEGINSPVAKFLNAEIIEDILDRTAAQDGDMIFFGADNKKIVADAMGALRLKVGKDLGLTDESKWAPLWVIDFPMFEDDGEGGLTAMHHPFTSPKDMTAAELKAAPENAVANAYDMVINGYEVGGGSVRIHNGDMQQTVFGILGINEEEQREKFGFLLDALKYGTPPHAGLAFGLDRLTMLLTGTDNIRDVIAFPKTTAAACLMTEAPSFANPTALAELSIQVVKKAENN

EcoDRS [3] = molecular target: T2, EcoDRS; experiment: thermal shift by dynamic light scattering; conditions: protein 3 mg/ml, temperature gradient
HsaDRS2 [4] = molecular target: T1, HsaDRS2; experiment: thermal shift by dynamic light scattering and differential scanning fluorimetry; conditions: protein 3 mg/ml, temperature gradient

Nc1ncnc2c1ncn2[C@@H]1O[C@H](COS(=O)(=O)NC(=O)[C@@H](N)CC(=O)O)[C@@H](O)[C@H]1O [Asp–AMS, 5′-O-[N-(L-aspartyl)sulfamoyl] adenosine]
Kd (HsaDRS2 [1]): 0.0175 ± 0.012 µM | Kd (EcoDRS [2]): 0.00295 ± 0.00134 µM | Tm (EcoDRS [3]): only Asp–AMS (dashed grey line) influences the thermostability of the two enzymes positively | Tm (HsaDRS2 [4]): Significant stabilization was observed in the presence of Asp–AMS
